Experiments:
[1] = molecular target: T1, GST-tagged LC3B (Homo sapiens, UniProt Q9GZQ8); assay: GST-pulldown with purified GST-LC3B and lysates of treated cells; details: HEK293T cells treated 100 µM, 1 hour; remaining binding compared to DMSO control
T1 construct: made in house; host or cells: E. coli Rosetta (DE3)
Method: A gene encoding for human LC3B protein inserted in a pET-GST expression vector was used as a template. Rosetta (DE3) competent cells were transformed by started procedure, plated on an LB agar plate with ampicillin (100 µg/ml) and left overnight at 37 °C. Overnight culture was prepared from a single colony and shaken at 180 rpm at 37 °C. LB medium with ampicillin was inoculated with overnight culture (10 ml per 500 ml of LB) and shaken until the optical density at 600 nm (OD600) reached a value of approximately 0.6. Protein expression was then induced with 400 µM IPTG and further incubated for 4 hours. Bacterial culture was centrifuged for 20 minutes at 6000 rpm at 4 °C. The pellet was then resuspended in lysis buffer (20 mM TRIS-HCl pH 7.5, 10 mM EDTA, 5 mM EGTA, 150 mM NaCl, 0.5 % NP40, 1 % Triton X-100, 1 mM DTT, 2 mg/ml lysozyme, 0.05 U/µl benzonase, 1x protease inhibitor cocktail). Lysate was then stored at -20 °C over night. Sample was thawed in water bath and sonicated on ice (40 % amplitude, 30 seconds pulse/30 seconds pause cycle). Lysate was centrifuged at 10000xg at 4 °C for half an hour. Meanwhile, 500 µl of glutathione sepharose beads was equilibrated with lysis buffer and then added to the supernatant. The mixture was incubated and rotated at room temperature for 2 hours. After binding of the protein to the beads, beads were spun down at 500xg at 4 °C for 5 minutes. […]

[2] = test system: U2OS cells; assay: MTT cell viability assay; assay type: cell-based, Human
Method: The MTT assay is a colorimetric assay for assessing cell viability. NAD(P)H-dependent cellular oxidoreductase enzymes in metabolic active cells reduce the tetrazolium dye MTT 3-(4,5-dimethylthiazol-2-yl)-2,5-diphenyltetrazolium bromide to its insoluble purple formazan. All cell types were seeded in 96 well plates and left over night for attachment. Next day, cells were treated with 100 µM compound I-1 for 24, 48, 72, and 96 hours. For controls, 1 µM staurosporine and 100 nM BafA1 were used. The assay was performed according to manufacturer's instructions and the absorbance of the formazan product was measured at 595 nm.

binding of p62 and ATG13 to GST-tagged LC3B [1]: approximately 50%
SMILES: Brc1ccc(CSC2=NCN(Cc3cccnc3)CN2)cc1 [Compound I-1, 6-((4-bromobenzyl)thio)-3-(pyridin-3-ylmethyl)-1,2,3,4-tetrahydro-1,3,5-triazine]
cell survival ([2]; 72 and 96 hours): almost no cell survival | cell viability ([2]; 24 hours, 100 µM): decreased viability
